# Measurements published in patent US20050271676A1, “Inducing cellular immune responses to human immunodeficiency virus-1 using peptide and nucleic acid compositions” (Epimmune Inc., priority 1993, published 2005).
# No end group written: not given here.
# How the values were obtained:
# HLA-DRB1*0301 (DR3) = biological target: T1, HLA-DRB1*0301 (DR3) (Homo sapiens, UniProt P01903+P01911, A100K/A102G/A103R/A169T/F55Y/I96L/K41T/L162R/M171V/P40S/Q125H/Q178H/Q39Y/R42S/S66N/T106N/T262R/W38E/Y61H); experiment: purified HLA class II binding assay, DRB1*0301 (DR3), pH 4.5
# T1 construct: endogenous in cells; host or cells: MAT
# T1 sequence (P01903 26-254 partner, other chains not shown): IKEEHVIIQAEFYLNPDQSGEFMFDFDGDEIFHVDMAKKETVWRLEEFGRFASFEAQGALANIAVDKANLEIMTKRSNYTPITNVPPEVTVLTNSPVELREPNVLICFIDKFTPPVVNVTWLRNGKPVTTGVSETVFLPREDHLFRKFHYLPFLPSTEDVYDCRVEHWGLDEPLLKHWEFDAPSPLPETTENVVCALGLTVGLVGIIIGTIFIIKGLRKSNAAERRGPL
# HLA-DRB1*0405 (DR4w15) = HLA-DRB1*0405 (DR4w15) (Homo sapiens, UniProt P01903+P01911, A100R/A169T/D86S/F76Y/I96L/K127E/L162R/M171V/N62H/P40V/Q125Y/R42H/S133A/S149N/S66Y/V115G/V209L/W38E); experiment: purified HLA class II binding assay, DRB1*0405 (DR4w15)
# HLA-DRB1*0701 (DR7) = biological target: T2, HLA-DRB1*0701 (DR7) (Homo sapiens, UniProt P01903+P01911, A100R/A102G/A103Q/D57E/D86V/E43K/F76Y/K127E/L162R/M171V/P40G/Q125H/Q99D/R33Q/R42Y/R54Q/S133A/S66F/T210M/V115G/Y107V/Y59L/Y89S); experiment: biochemical; type: binding
# T2 construct: endogenous in cells; host or cells: Pitout
# HLA-DRB1*0802 (DR8w2) = biological target: T3, HLA-DRB1*0802 (DR8w2) (Homo sapiens, UniProt P01903+P01911, A100R/A103L/A169T/F76Y/H45Y/I96F/K41T/L162R/M171V/P40S/Q125H/Q178H/Q39Y/Q99D/R218S/R42G/S66Y/V115G/W38E); experiment: biochemical; type: binding
# T3 construct: endogenous in cells
# HLA-DRB1*0901 (DR9) = biological target: T4, HLA-DRB1*0901 (DR9) (Homo sapiens, UniProt P01903+P01911, A100R/A103E/D57H/D86V/F55Y/F60I/F76Y/I96F/K127E/L162R/M171V/P40D/Q125H/Q99R/R33Q/R42F/S133A/S66N/T210M/V115G/W38K/Y107V/Y59G/Y89S); experiment: biochemical; type: binding
# T4 construct: endogenous in cells
# HLA-DRB1*1101 (DR5w11) = biological target: T5, HLA-DRB1*1101 (DR5w11) (Homo sapiens, UniProt P01903+P01911, A100R/A169T/A87E/I96F/K41T/L162R/M171V/P40S/Q125H/Q178H/Q39Y/Q99D/R42S/S66Y/T262R/V115G/W38E); experiment: biochemical; type: binding
# T5 construct: endogenous in cells
# T5 sequence (P01903 26-254, other chains not shown): as the sequence (P01903 26-254 partner, other chains not shown) above
# HLA-DRB1*1201 (DR5w12) = biological target: T6, HLA-DRB1*1201 (DR5w12) (Homo sapiens, UniProt P01903+P01911, A100R/A169T/D57E/D86V/F55L/H45Y/K41T/L162R/M171V/P40S/Q125H/Q178H/Q39Y/Q99D/R42G/S66L/T262R/V114A/V67L/W38E/Y59H/Y61H/Y89S); experiment: purified HLA class II binding assay, DRB1*1201 (DR5w12)
# T6 construct: endogenous in cells
# HLA-DRB1*1302 (DR6w19) = HLA-DRB1*1302 (DR6w19) (Homo sapiens, UniProt P01903+P01911, A100E/A169T/K41T/L162R/M171V/P40S/Q125H/Q178H/Q39Y/Q99D/R42S/S66N/T262R/V115G/W38E/Y61H); experiment: purified HLA class II binding assay, DRB1*1302 (DR6w19)
# HLA-DRB1*1501 (DR2w2β1) = biological target: T7, HLA-DRB1*1501 (DR2w2β1) (Homo sapiens, UniProt P01903+P01911); experiment: purified HLA class II binding assay, DRB1*1501 (DR2w2β1)
# T7 construct: expressed in transfected cells
# HLA-DRB5*0101 (DR2w2β2) = biological target: T8, HLA-DRB5*0101 (DR2w2β2) (Homo sapiens, UniProt P01903+Q30154); experiment: biochemical; type: binding
# T8 construct: expressed in transfected cells
# HLA-DRB1*0401 (DR4w4) = biological target: T9, HLA-DRB1*0401 (DR4w4) (Homo sapiens, UniProt P01903+P01911, A100K/A169T/F76Y/I96L/K127E/L162R/M171V/N62H/P40V/Q125Y/R42H/S133A/S149N/S66Y/V115G/V209L/W38E); experiment: purified HLA class II binding assay, DRB1*0401 (DR4w4)
# T9 construct: endogenous in cells; host or cells: Preiss
# T9 sequence (P01903 26-254 partner, other chains not shown): as above
# HLA-B*3501 = HLA-B*3501 (Homo sapiens, UniProt P01889, A329T/A93T/A95T/C349S/D201E/D98Y/E176V/E187L/E204Q/E69T/I218V/K202T/L119I/Q94N/R155S/R180L/S121R/S35A/S48A/T118I/V127L/V306I/V36M/Y140S/Y91F); experiment: purified HLA class I binding assay, B*3501
# HLA-B51 (B*5101) = HLA-B51 (B*5101) (Homo sapiens, UniProt P01889, A329T/A93T/A95T/C349S/D138N/D201E/D98Y/E187L/E204Q/E69T/G107R/I218V/K202T/L105A/L119W/N104I/Q94N/R106L/R155S/R180L/S101N/S121T/S35A/S48A/V306I/V36M/Y195H/Y91F); experiment: purified HLA class I binding assay, B51 (B*5101)
# HLA-B*5301 = HLA-B*5301 (Homo sapiens, UniProt P01889, A329T/A93T/A95T/C349S/D201E/D98Y/E176V/E187L/E204Q/E69T/G107R/I218V/K202T/L105A/L119I/N104I/Q94N/R106L/R155S/R180L/S101N/S121R/S35A/S48A/T118I/V127L/V306I/V36M/Y140S/Y91F); experiment: purified HLA class I binding assay, B*5301
# HLA-B*5401 = HLA-B*5401 (Homo sapiens, UniProt P01889, A329T/C349S/D138N/D201E/E176V/E187T/E204Q/E69G/I76V/K202T/L119W/R155S/R180L/S121T/S35A/S48A/V127L/V306I/V36M/Y140L); experiment: biochemical
# HLA-B*0702 = biological target: T10, HLA-B*0702 (Homo sapiens, UniProt P01889); experiment: purified HLA class I binding assay, B*0702
# T10 construct: endogenous in cells; host or cells: GM3107
# HLA-A*0101 = HLA-A*0101 (Homo sapiens, UniProt P04439, A114D/A174V/A182V/D101N/D185E/E176A/E190D/L180R/Q94H/R68K/S129P/T187R/V100A/V91M/W191G); experiment: biochemical; type: binding
# [1] = HIV DR super motif peptides, unit not given
Compound,IC50 (HLA-DRB1*0405 (DR4w15)),IC50 (HLA-DRB1*0701 (DR7)),IC50 (HLA-DRB1*0802 (DR8w2)),IC50 (HLA-DRB1*0901 (DR9)),IC50 (HLA-DRB1*1201 (DR5w12)),IC50 (HLA-DRB1*1302 (DR6w19)),IC50 (HLA-B*3501),IC50 (HLA-B*5301),IC50 (HLA-B*5401),other results
QKQITKIQNFRVYYR [Peptide 27.0377],49 nM,25 nM,75 nM,577 nM,0.124 µM,25 nM,,,,IC50 (HLA-DRB1*0301 (DR3)): > 20 µM; IC50 (HLA-DRB1*1101 (DR5w11)): 53 nM; IC50 (HLA-DRB1*1501 (DR2w2β1)): 3.4 nM; IC50 (HLA-DRB5*0101 (DR2w2β2)): 80 nM
CC[C@H](C)[C@H](NC(=O)CNC(=O)[C@H](CCCCN)NC(=O)[C@H](Cc1c[nH]cn1)NC(=O)[C@H](C)NC(=O)[C@@H]1CCCN1C(=O)[C@@H](NC(=O)[C@H](Cc1c[nH]c2ccccc12)NC(=O)[C@H](C)NC(=O)[C@H](CC(C)C)NC(=O)[C@H](Cc1ccc(O)cc1)NC(=O)[C@@H](NC(=O)[C@H](CCCCN)NC(=O)[C@@H](N)CCC(=O)O)C(C)C)C(C)C)C(=O)NCC(=O)O [Peptide 27.0361],27 nM,18 nM,31 nM,144 nM,6.48 µM,3500 nM,,,,IC50 (HLA-DRB1*0301 (DR3)): 3.23 µM; IC50 (HLA-DRB1*0401 (DR4w4)): 9.3 nM; IC50 (HLA-DRB1*1101 (DR5w11)): 37 nM; IC50 (HLA-DRB1*1501 (DR2w2β1)): 21 nM; IC50 (HLA-DRB5*0101 (DR2w2β2)): 4.9 nM
IPYNPQSQGVV [1296.03],,,,,,,72 µM,46.5 µM,66.7 nM,IC50 (HLA-B51 (B*5101)): 120 nM
CC(C)C[C@H](NC(=O)[C@@H]1CCCN1C(=O)[C@@H](NC(=O)[C@H](CCC(N)=O)NC(=O)[C@@H]1CCCN1C(=O)[C@H](CCCNC(=N)N)NC(=O)[C@@H](NC(=O)[C@@H]1CCCN1C(=O)[C@@H](N)Cc1ccccc1)C(C)C)C(C)C)C(=O)O [1146.01],,,,,,,0.043 µM,0.482 µM,,IC50 (HLA-B*0702): 15.7 nM; IC50 (HLA-B51 (B*5101)): 11.6 nM
CC(C)C[C@H](NC(=O)[C@H](CCCCN)NC(=O)[C@@H](NC(=O)[C@H](CC(C)C)NC(=O)[C@@H]1CCCN1C(=O)[C@@H]1CCCN1C(=O)[C@@H](NC(=O)[C@H](CC(N)=O)NC(=O)[C@@H](NC(=O)[C@H](Cc1ccccc1)NC(=O)[C@H](CCC(=O)O)NC(=O)[C@@H](N)Cc1c[nH]c2ccccc12)C(C)C)[C@@H](C)O)C(C)C)C(=O)N[C@@H](Cc1c[nH]c2ccccc12)C(=O)N[C@@H](Cc1ccc(O)cc1)C(=O)N[C@@H](CCC(N)=O)C(=O)O [Peptide 27.0354],20 nM,15 nM,350 nM,39 nM,1.36 µM,90 nM,,,,IC50 (HLA-DRB1*0401 (DR4w4)): 28 nM; IC50 (HLA-DRB5*0101 (DR2w2β2)): 2.1 nM
QQHLLQLTVWGTKQL,,,,,,,,,,DR3 binding (HLA-DRB1*0301 (DR3); [1]): −0.0043; DR4w4 binding (HLA-DRB1*0401 (DR4w4); [1]): 0.0330; DR4w15 binding (HLA-DRB1*0405 (DR4w15); [1]): 0.2700; DR7 binding (HLA-DRB1*0701 (DR7)): 0.3900; DR8w2 binding (HLA-DRB1*0802 (DR8w2)): 0.0210; DR9 binding (HLA-DRB1*0901 (DR9)): 0.5100; DR5w11 binding (HLA-DRB1*1101 (DR5w11)): 0.0036; DR5w12 binding (HLA-DRB1*1201 (DR5w12); [1]): 0.4900; DR6w19 binding (HLA-DRB1*1302 (DR6w19); [1]): 0.0180; DR2 wβ1 binding (HLA-DRB1*1501 (DR2w2β1); [1]): 0.7500; DR2w2β2 binding (HLA-DRB5*0101 (DR2w2β2)): 0.0580
CC(C)C[C@H](NC(=O)[C@H](CO)NC(=O)[C@H](CCCNC(=N)N)NC(=O)[C@H](CC(C)C)NC(=O)[C@H](CO)NC(=O)[C@H](C)NC(=O)[C@H](CC(C)C)NC(=O)[C@@H]1CCCN1C(=O)[C@@H](N)Cc1ccc(O)cc1)C(=O)N[C@@H](Cc1ccccc1)C(=O)O [15.0268],,,,,,,,,714 nM,IC50 (HLA-B51 (B*5101)): 39.3 nM
FPISPIETV [Peptide 1261.01],,,,,,,1.04 µM,,9.1 nM,IC50 (HLA-B*0702): 3440 nM
VPLQLPPL [29.0028],,,,,,,6 µM,46.5 µM,270 nM,IC50 (HLA-B51 (B*5101)): 0.8 nM
HSNWRAMASDFNLPP [Peptide 27.0364],15 nM,472 nM,1960 nM,872 nM,> 20 µM,4370 nM,,,,IC50 (HLA-DRB1*0301 (DR3)): > 20 µM; IC50 (HLA-DRB1*0401 (DR4w4)): 11 nM; IC50 (HLA-DRB1*1101 (DR5w11)): 95 nM; IC50 (HLA-DRB1*1501 (DR2w2β1)): > 20000 nM
HPVHAGPIA [1292.13],,,,,,,0.0116 µM,4.43 µM,4.3 nM,IC50 (HLA-B*0702): 50 nM
ILKEVYIIGVY,,,,,,,,,,A*0101 (binding information) (HLA-A*0101): 0.0017
CC[C@H](C)[C@H](NC(=O)[C@H](C)NC(=O)[C@@H]1CCCN1C(=O)[C@@H](N)CO)C(=O)N[C@@H](Cc1ccccc1)C(=O)N[C@@H](CCC(N)=O)C(=O)N[C@@H](CO)C(=O)N[C@@H](CO)C(=O)N[C@@H](CCSC)C(=O)N[C@H](C(=O)N[C@@H](CCCCN)C(=O)N[C@H](C(=O)N[C@@H](CC(C)C)C(=O)N[C@@H](CCC(=O)O)C(=O)N1CCC[C@H]1C(=O)O)[C@@H](C)CC)[C@@H](C)O [Peptide 27.0344],109 nM,68 nM,3270 nM,33 nM,> 20 µM,13 nM,,,,IC50 (HLA-DRB1*0301 (DR3)): > 20 µM; IC50 (HLA-DRB1*0401 (DR4w4)): 3570 nM; IC50 (HLA-DRB1*1101 (DR5w11)): 741 nM
EVNIVTDSQY [Peptide 1.0431],,,,,,,,,,IC50 (HLA-A*0101): 472 nM
CPKVSFEPI [1296.02],,,,,,,5.14 µM,2.45 µM,100 nM,IC50 (HLA-B*0702): 100 nM
